Results published in ChEMBL document CHEMBL1201862, “PubChem BioAssay data set” (2004).
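Following 48 hours of exposure in 96-well plates, responses at five concentrations were used to interpolate endpoints linearly. Here, GI50 denotes the concentration required for 50% inhibition of growth.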 The source made the active and inactive calls. Rule as the data show it: active = GI50 up to about 1.1 µM and inactive = higher.

Tests used:
Test in all cases: growth of human tumour cells (NCI), 48 h
SK-OV-3 = tested on: SK-OV-3
SF-295 = tested on: SF-295
NCI-H23 = tested on: NCI-H23
LOX IMVI = tested on: LOX IMVI
SNB-19 = tested on: SNB-19
OVCAR-8 = tested on: OVCAR-8
U-251 = tested on: U-251
NCI/ADR-RES = tested on: NCI/ADR-RES
A549 = tested on: A549
HT-29 = tested on: HT-29
SK-MEL-28 = tested on: SK-MEL-28
ACHN = tested on: ACHN
HL-60 = tested on: HL-60
DU-145 = tested on: DU-145
SR = tested on: SR
SW-620 = tested on: SW-620
HOP-62 = tested on: HOP-62
M14 = tested on: M14
CAKI-1 = tested on: CAKI-1
SNB-75 = tested on: SNB-75

Measured: GI50

COC(=O)N[C@H](C(=O)O)C(C)O[Si](C)(C)C(C)(C)C (stereo partly specified)
inactive: SK-OV-3 > 100 µM | SF-295 > 100 µM | NCI-H23 > 100 µM | LOX IMVI > 100 µM | SNB-19 > 100 µM | OVCAR-8 > 100 µM | U-251 > 100 µM | NCI/ADR-RES > 100 µM | A549 > 100 µM | HT-29 > 100 µM | SK-MEL-28 > 100 µM | ACHN > 100 µM | HL-60 > 100 µM | DU-145 > 100 µM | SR > 100 µM | SW-620 > 100 µM | HOP-62 > 100 µM

CC1N=C(c2ccccc2)OC1=O (stereo unspecified)
inactive: SK-OV-3 > 100 µM | SF-295 > 100 µM | NCI-H23 > 100 µM | LOX IMVI > 100 µM | M14 > 100 µM | SNB-19 > 100 µM | OVCAR-8 > 100 µM | CAKI-1 > 100 µM | U-251 > 100 µM | NCI/ADR-RES > 100 µM | A549 > 100 µM | HT-29 > 100 µM | SK-MEL-28 > 100 µM | ACHN > 100 µM | DU-145 > 100 µM | SW-620 > 100 µM | HOP-62 > 100 µM | SNB-75 > 100 µM

COc1ccc(/C=C2\S/C(=N/Nc3nc(-c4ccccc4)cs3)NC2=O)cc1OC
inactive: SK-OV-3 21.5 µM | SF-295 25.3 µM | NCI-H23 19.1 µM | LOX IMVI 23.3 µM | M14 32.4 µM | SNB-19 25.6 µM | OVCAR-8 21 µM | CAKI-1 31.8 µM | U-251 26.3 µM | NCI/ADR-RES 20.7 µM | A549 20.9 µM | SK-MEL-28 32.7 µM | ACHN 24.7 µM | HL-60 6 µM | DU-145 34 µM | SW-620 30.3 µM | HOP-62 22.1 µM | SNB-75 22.8 µM

O=C1C[C@H](CCC(=O)OCc2ccccc2)NC(=O)C[C@H](CCC(=O)OCc2ccccc2)NC(=O)C[C@H](CCC(=O)OCc2ccccc2)N1
inactive: SK-OV-3 5.92 µM | SF-295 8.81 µM | NCI-H23 52.8 µM | LOX IMVI > 100 µM | M14 > 100 µM | SNB-19 9.98 µM | OVCAR-8 > 100 µM | CAKI-1 > 100 µM | U-251 5.24 µM | NCI/ADR-RES 82.4 µM | A549 > 100 µM | HT-29 > 100 µM | SK-MEL-28 > 100 µM | ACHN 17.1 µM | DU-145 > 100 µM | SR > 100 µM | SW-620 > 100 µM | HOP-62 16.2 µM | SNB-75 2.22 µM

O=C(Cn1c(C(=O)/C=C/c2ccc(Cl)c(Cl)c2)nc2ccccc21)c1ccccc1
inactive: SK-OV-3 28.6 µM | NCI-H23 31.6 µM | LOX IMVI 17.9 µM | M14 23.2 µM | SNB-19 27.4 µM | U-251 26.8 µM | NCI/ADR-RES 21.8 µM | A549 21.7 µM | HT-29 16 µM | SK-MEL-28 35.3 µM | ACHN 28 µM | HL-60 15.6 µM | DU-145 32.9 µM | SR 25 µM | SW-620 33.3 µM | HOP-62 26 µM

O=C(Nc1ccc2[nH]c(C(=O)N3CC(CCl)c4c3cc([N+](=O)[O-])c3ccccc43)cc2c1)Nc1ccc2[nH]c(C(=O)N3CC(CCl)c4c3cc([N+](=O)[O-])c3ccccc43)cc2c1 (stereo unspecified)
inactive: SK-OV-3 > 100 µM | SF-295 > 100 µM | NCI-H23 > 100 µM | M14 31.3 µM | SNB-19 > 100 µM | CAKI-1 > 100 µM | U-251 > 100 µM | NCI/ADR-RES > 100 µM | A549 > 100 µM | SK-MEL-28 > 100 µM | ACHN > 100 µM | DU-145 > 100 µM | HOP-62 > 100 µM | SNB-75 > 100 µM

Clc1sc(Cl)c2c1[C@H](Br)C[C@@H]2Cl
inactive: SK-OV-3 > 100 µM | SF-295 99.5 µM | NCI-H23 17.8 µM | LOX IMVI 18.2 µM | M14 20.3 µM | SNB-19 57.7 µM | OVCAR-8 27.6 µM | CAKI-1 26.2 µM | U-251 27.7 µM | NCI/ADR-RES 17.7 µM | A549 32.9 µM | HT-29 35 µM | SK-MEL-28 29 µM | ACHN 18.8 µM | DU-145 33.7 µM | SR 15.7 µM | SW-620 21.6 µM | HOP-62 83.9 µM | SNB-75 > 100 µM

Cc1n[nH]c(=O)n1-n1cccc1
inactive: SK-OV-3 > 100 µM | SF-295 > 100 µM | NCI-H23 > 100 µM | LOX IMVI > 100 µM | M14 > 100 µM | SNB-19 > 100 µM | OVCAR-8 > 100 µM | CAKI-1 > 100 µM | U-251 > 100 µM | NCI/ADR-RES > 100 µM | A549 > 100 µM | HT-29 > 100 µM | SK-MEL-28 > 100 µM | ACHN > 100 µM | DU-145 > 100 µM | SW-620 > 100 µM | HOP-62 > 100 µM | SNB-75 > 100 µM

COC1(OC)C=CC2C1C1C=CC2C1(OC)OC (stereo unspecified)
inactive: SK-OV-3 > 100 µM | SF-295 > 100 µM | NCI-H23 > 100 µM | LOX IMVI > 100 µM | M14 > 100 µM | SNB-19 > 100 µM | OVCAR-8 > 100 µM | CAKI-1 > 100 µM | U-251 > 100 µM | NCI/ADR-RES > 100 µM | A549 > 100 µM | HT-29 > 100 µM | SK-MEL-28 > 100 µM | ACHN > 100 µM | DU-145 > 100 µM | SR > 100 µM | SW-620 > 100 µM | HOP-62 > 100 µM | SNB-75 > 100 µM

C[C@@H]1C(=O)O[C@H]1[C@H](O)CO
inactive: SK-OV-3 > 100 µM | SF-295 > 100 µM | NCI-H23 > 100 µM | LOX IMVI > 100 µM | M14 > 100 µM | SNB-19 > 100 µM | OVCAR-8 > 100 µM | CAKI-1 > 100 µM | U-251 > 100 µM | NCI/ADR-RES > 100 µM | A549 > 100 µM | SK-MEL-28 > 100 µM | ACHN > 100 µM | HL-60 > 100 µM | DU-145 > 100 µM | SW-620 > 100 µM | HOP-62 > 100 µM | SNB-75 > 100 µM

O=S(=O)(O)c1cc(O)c(/N=N\C2S(=O)(=O)OCCOS2(=O)=O)c2ccccc12
inactive: SK-OV-3 > 100 µM | SF-295 51.4 µM | NCI-H23 > 100 µM | LOX IMVI 61.9 µM | M14 > 100 µM | SNB-19 56.5 µM | OVCAR-8 > 100 µM | CAKI-1 > 100 µM | U-251 71.8 µM | NCI/ADR-RES > 100 µM | A549 > 100 µM | HT-29 > 100 µM | SK-MEL-28 > 100 µM | ACHN 46 µM | HL-60 22.2 µM | DU-145 > 100 µM | SW-620 > 100 µM | HOP-62 43.6 µM | SNB-75 25.6 µM

O=C(O)CC12CC3CC(CC(O)(C3)C1)C2
inactive: SK-OV-3 > 100 µM | SF-295 > 100 µM | NCI-H23 > 100 µM | LOX IMVI > 100 µM | M14 > 100 µM | SNB-19 > 100 µM | OVCAR-8 > 100 µM | CAKI-1 > 100 µM | U-251 > 100 µM | NCI/ADR-RES > 100 µM | A549 > 100 µM | HT-29 > 100 µM | SK-MEL-28 > 100 µM | ACHN > 100 µM | DU-145 > 100 µM | SR > 100 µM | SW-620 > 100 µM | HOP-62 > 100 µM | SNB-75 > 100 µM

O=C(Nc1ccccc1Cl)c1cc(S(=O)(=O)Nc2n[nH]c(=O)n2-c2ccccc2)c(S)cc1Cl
inactive: SK-OV-3 > 100 µM | SF-295 > 100 µM | NCI-H23 > 100 µM | LOX IMVI > 100 µM | M14 > 100 µM | SNB-19 92.3 µM | OVCAR-8 > 100 µM | CAKI-1 > 100 µM | U-251 > 100 µM | NCI/ADR-RES > 100 µM | HT-29 > 100 µM | SK-MEL-28 > 100 µM | HL-60 > 100 µM | DU-145 > 100 µM | SR > 100 µM | SW-620 > 100 µM | HOP-62 > 100 µM

COc1ccc2c(c1)c1c(n2CCN2CCOCC2)-c2cccc(OC)c2CC1
inactive: SK-OV-3 > 100 µM | SF-295 30.7 µM | NCI-H23 52.8 µM | M14 26.5 µM | OVCAR-8 46.8 µM | CAKI-1 > 100 µM | U-251 40.1 µM | NCI/ADR-RES 43.6 µM | A549 26.2 µM | HT-29 17.1 µM | SK-MEL-28 54.1 µM | ACHN 37 µM | DU-145 62.4 µM | SR 10 µM | SW-620 36.8 µM | HOP-62 45.6 µM

CC(=O)ONC(C(=O)C(C)(C)C)C(=O)C(C)(C)C
inactive: SK-OV-3 > 100 µM | SF-295 > 100 µM | NCI-H23 > 100 µM | LOX IMVI > 100 µM | M14 > 100 µM | SNB-19 > 100 µM | OVCAR-8 > 100 µM | CAKI-1 > 100 µM | U-251 > 100 µM | NCI/ADR-RES > 100 µM | A549 > 100 µM | HT-29 > 100 µM | SK-MEL-28 > 100 µM | ACHN > 100 µM | HL-60 > 100 µM | DU-145 > 100 µM | SW-620 > 100 µM | HOP-62 > 100 µM | SNB-75 > 100 µM
